From patent US10676509B2, “Surface-immobilized antimicrobial peptoids” (Northwestern University, priority 2008, dated 2020)
Non-standard residues stand in square brackets, D forms with d. Residues, ends and D or L forms follow the SMILES beside them. Dopa = N[C@@H](Cc1ccc(O)c(O)c1)C(=O)O; Nme = COCCNCC(=O)O

Legend:
[1] = molecular target: T1, fibrinogen from human plasma (Homo sapiens, UniProt P02671+P02675+P02679); assay: Short-term fibrinogen adsorption on modified TiO2 sensors using OWLS; conditions: Table 7, fibrinogen 3 mg/ml, 20 min, 37° C., mean ± SD
T1 construct: fibrinogen from human plasma was dissolved at 3 mg/ml concentrations in buffer B; purchased Aldrich (Milwaukee, Wis.); host or cells: human plasma
T1 sequence (P02671 20-644 isoform P02671-2 limits assumed): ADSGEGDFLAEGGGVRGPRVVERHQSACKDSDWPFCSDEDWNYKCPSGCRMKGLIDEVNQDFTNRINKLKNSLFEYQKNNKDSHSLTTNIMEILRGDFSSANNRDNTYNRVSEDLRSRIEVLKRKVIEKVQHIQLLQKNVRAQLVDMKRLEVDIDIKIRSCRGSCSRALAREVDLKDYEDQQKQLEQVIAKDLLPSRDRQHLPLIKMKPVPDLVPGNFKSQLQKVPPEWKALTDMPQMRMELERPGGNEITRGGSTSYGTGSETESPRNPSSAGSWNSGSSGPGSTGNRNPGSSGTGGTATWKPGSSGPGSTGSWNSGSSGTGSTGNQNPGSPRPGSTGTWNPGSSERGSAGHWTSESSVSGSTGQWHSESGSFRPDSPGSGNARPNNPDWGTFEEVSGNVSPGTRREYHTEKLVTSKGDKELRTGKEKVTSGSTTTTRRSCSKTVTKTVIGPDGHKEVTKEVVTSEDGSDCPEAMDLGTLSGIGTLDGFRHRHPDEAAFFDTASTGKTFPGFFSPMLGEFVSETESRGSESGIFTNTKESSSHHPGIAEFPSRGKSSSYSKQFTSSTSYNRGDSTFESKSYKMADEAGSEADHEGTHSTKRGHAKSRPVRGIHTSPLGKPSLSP
T1 sequence (P02675 31-491): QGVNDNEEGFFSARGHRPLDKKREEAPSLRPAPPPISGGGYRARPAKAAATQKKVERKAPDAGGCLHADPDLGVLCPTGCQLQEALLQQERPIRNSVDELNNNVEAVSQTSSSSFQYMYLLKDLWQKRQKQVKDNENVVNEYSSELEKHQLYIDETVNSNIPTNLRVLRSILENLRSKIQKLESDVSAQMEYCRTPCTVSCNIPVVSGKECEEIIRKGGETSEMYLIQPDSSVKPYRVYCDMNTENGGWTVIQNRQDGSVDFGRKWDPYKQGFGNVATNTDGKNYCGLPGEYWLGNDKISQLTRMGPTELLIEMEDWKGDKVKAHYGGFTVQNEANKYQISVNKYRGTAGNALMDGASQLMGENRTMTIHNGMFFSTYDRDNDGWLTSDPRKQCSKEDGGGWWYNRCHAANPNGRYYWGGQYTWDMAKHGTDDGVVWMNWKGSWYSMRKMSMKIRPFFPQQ
T1 sequence (P02679 27-437 isoform P02679-2 limits assumed): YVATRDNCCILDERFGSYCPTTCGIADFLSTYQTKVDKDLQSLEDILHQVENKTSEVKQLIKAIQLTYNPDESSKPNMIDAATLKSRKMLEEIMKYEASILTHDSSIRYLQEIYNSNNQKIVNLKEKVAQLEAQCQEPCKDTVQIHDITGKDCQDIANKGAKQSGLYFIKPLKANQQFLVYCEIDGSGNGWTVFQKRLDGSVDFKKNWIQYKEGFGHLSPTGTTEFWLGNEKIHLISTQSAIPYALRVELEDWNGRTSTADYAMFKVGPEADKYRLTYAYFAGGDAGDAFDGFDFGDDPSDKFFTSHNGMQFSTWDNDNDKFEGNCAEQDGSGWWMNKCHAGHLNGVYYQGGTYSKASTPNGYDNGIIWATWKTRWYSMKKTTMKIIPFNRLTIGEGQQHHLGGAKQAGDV
Description: Lyophilized human serum was reconstituted in water to reach the typical concentration in blood; fibrinogen from human plasma was dissolved at 3 mg/ml concentrations in buffer B (10 mM HEPES, 150 mM NaCl, pH=7.4). For in situ protein-adsorption experiments, TiO2 coated waveguide sensors were modified with peptidomimetic polymers as explained previously. After equilibration of the OWLS baseline in buffer B, protein solution was injected and allowed to adsorb for 20 min at 37° C. before rinsing with buffer B. A refractive index value of 1.331 27 was used for buffer B, and a standard value of 0.182 cm^3/g was used for dn/dc in the protein-adsorption calculations.

[2] = system: B. subtilis; type: cell-based, Bacillus subtilis (ATCC 6633); conditions: 16 h
Description: (§1) The polymers were initially tested to determine their antibacterial properties in the solution state. Antibacterial activities of the compounds were tested using the methods described above for both Gram-negative and Gram-positive bacterial strains.
(§2) The minimum inhibitory concentration (MIC) for each polymer was determined according to Clinical Laboratory Standards Institute (CLSI) broth microdilution protocols (M7-A6). The procedure explained previously was followed (Chongsiriwatana et al., supra); briefly, serial dilutions of the polymers were prepared in Mueller-Hinton broth (MHB) in 96-well microtiter plates and bacterial inoculum in MHB was added to each well (˜5.0×10^4 CFU/well). Optical density was monitored at 590 nm for 16 h at 35° C.

[3] = system: S. epidermidis; type: cell-based, Staphylococcus epidermidis RP62A (ATCC 12228); conditions: 16 h
Description: as §1, §2

[4] = system: E. coli; type: cell-based, Escherichia coli (ATCC 35218); conditions: 16 h
Description: as §1, §2

[5] = system: P. aeruginosa; type: cell-based, Pseudomonas aeruginosa (ATCC 700829); conditions: 16 h
Description: as §1, §2

Adsorbed mass Fibrinogen [1]: 7 ± 3 ng/cm^2
MIC B. subtilis [2]: >100 µM
MIC S. epidermidis [3]: >100 µM
MIC E. coli [4]: >100 µM
MIC P. aeruginosa [5]: >100 µM
SMILES: COCCN(CC(=O)N(CCOC)CC(=O)N(CCOC)CC(=O)N(CCOC)CC(=O)N(CCOC)CC(=O)N(CCOC)CC(=O)N(CCOC)CC(=O)N(CCOC)CC(=O)N(CCOC)CC(=O)N(CCOC)CC(=O)N(CCOC)CC(=O)N(CCOC)CC(=O)N(CCOC)CC(=O)N(CCOC)CC(=O)N(CCOC)CC(=O)N(CCOC)CC(=O)N(CCOC)CC(=O)N(CCOC)CC(=O)N(CCOC)CC(=O)N(CCOC)CC(=O)N[C@@H](Cc1ccc(O)c(O)c1)C(=O)N[C@@H](CCCCN)C(=O)N[C@@H](Cc1ccc(O)c(O)c1)C(=O)N[C@@H](CCCCN)C(=O)N[C@@H](Cc1ccc(O)c(O)c1)C(N)=O)C(C)=O [PMP1, (Nme)20-(DOPA-Lys)2-DOPA] (Ac-[Nme][Nme][Nme][Nme][Nme][Nme][Nme][Nme][Nme][Nme][Nme][Nme][Nme][Nme][Nme][Nme][Nme][Nme][Nme][Nme][Dopa]K[Dopa]K[Dopa]-NH2; N-terminus and C-terminus assumed)
